Assay results published in patent publication US20090142363A1, “CYTOTOXIC T-CELL EPITOPE PEPTIDE AND USE THEREOF” (priority 2005, published 2009).
No end group written: not given here.

How the values were obtained:
[1] = tested on: peripheral blood / PBMCs / peptide-induced CTL lines of HLA-A*24 donors; assay: Staining of peripheral blood, PBMCs or peptide-induced CTL lines with MHC-tetramer reagents; assay type: cell-based, human
Experimental: MBL Co. where the present inventors are affiliated with has acquired exclusive patent licensing rights in Japan for MHC-tetramer reagents (U.S. Pat. No. 5,635,363; French Application No. FR9911133; and U.S. Pat. Nos. 5,723,584, 5,874,239, 5,932,433, and 6,265,552) from Beckman Coulter Co. Based on the patents, PE-labeled MHC-tetramer reagents were prepared using adenovirus-specific CTL epitope peptides and HLA-A*2402 molecules.
Adenovirus-specific CTLs quantification was carried out using MHC-tetramer reagents that was prepared using CTL epitope peptides of the present invention, with peripheral blood, PBMCs isolated from peripheral blood, CTL lines induced using CTL epitope peptides as samples. Examples of quantification using PE-labeled MHC-tetramer reagents are described below. Labelling dyes may be used in an appropriate combination depending on the type of flow cytometer to be used, and is not limited to the examples described below.
Ten μl of a PE-labeled MHC-tetramer reagent, 20 μl of an FITC-labeled antibody for T cell (for example, CD8, CD4, or CD3), and such were added to 200 μl of collected peripheral blood. A CD45 antibody labeled with PC5 or such may also be added to eliminate nonspecific fluorescence due to contaminated erythrocytes. After gentle mixing, the mixture was allowed to stand at room temperature for 30 minutes. OptiLyse B was added, and erythrolysis and fixation was carried out according to the manufacturer's protocol. Two ml of PBS was added, stirred, and the cells were centrifuged at 400×g for 5 minutes. After the supernatant was removed by aspiration, the cells were resuspended in 500 μl of PBS and analyzed using a flow cytometer within 24 hours.
Ten μl of a PE-labeled MHC-tetramer reagent, 20 μl of an FITC-labeled T cell surface antibody (for example, CD8, CD4, or CD3), and such were added to an appropriate amount of PBMCs (10^5 to 10^6 cells) or a CTL line induced by use of CTL epitope peptides. A CD45 antibody labeled with PC5 or such may also be added to eliminate nonspecific fluorescence due to contaminated erythrocytes. After gentle mixing, the cells were allowed to stand at room temperature for 30 minutes. Three ml of PBS was added, stirred, and the cells were centrifuged at 400×g for 5 minutes. After the supernatant was removed by aspiration, the cells were resuspended in 500 μl of PBS. When a CTL line is used, 7-AAD Viability Dye (Non-viable cell detection reagent; MBL Co.) may be added to eliminate nonspecific fluorescence caused by non-viable cells. The cells were analyzed using a flow cytometer within 24 hours.
The results of staining obtained using the five types of MHC-tetramer reagents used to prepare the peptide-induced CTL lines are shown in FIG. 5.

[2] = tested on: PBMCs of healthy adults reactive to the anti-HLA-A*24 antibody; assay: Induction of specific CTLs from PBMCs, method for quantifying cells producing intracellular IFNγ; assay type: cell-based, human; design: key to specific CTL induction, cytokine quantification method: ∘: “open circle” indicates that the use of a candidate peptide enabled specific CTLs to be induced; x: “cross” indicates that specific CTLs was unable to be induced; details: for CD8-positive, IFNγ-positive cells in UR: HIV peptides added for restimulation as negative control
Experimental: This induction method induces CTLs by adding peptides to culture media of PBMCs. Peptides are presented on antigen-presenting cells present among PBMCs, such as dendritic cells, B cells, macrophages, and certain types of T cells, whereby CTL precursor cells in PBMCs are stimulated to proliferate.
Peripheral blood collected from healthy adults that were reactive to the anti-HLA-A*24 antibody was centrifuged at 3,000 rpm for 5 to 10 minutes. The resulting supernatant plasma was collected. The non-plasma portion was processed according to a conventional method to isolate PBMCs. The characteristic of the present method is the addition of several % of plasma to an induction medium. In the present invention, a favorable result was obtained by adding 5% plasma. The medium is prepared by adding appropriate additives and antibiotics to a medium commonly used for cell culture. The CTL induction medium used in the present invention was RPMI1640 Hepes modify (Sigam) supplemented with 2-mercapotethanol, L-glutamine, and the antibiotics streptomycin and penicillin. In addition to these, insulin, transferrin, selenious acid, pyruvic acid, human serum albumin, solution of non-essential amino acids, and the like may be added. 1 to 3×10^6 PBMCs were suspended in 1 to 2.5 ml of the culture medium. A candidate peptide was added to the cells at a concentration of 1 to 20 μg/ml. The concentration of peptide can be altered depending on the solubility of the peptide. The peptide was added at 10 μg/ml. After two days, IL-2 was added at a final concentration of 20 to 100 U/ml. Round-bottomed culture dishes that allow the exchange of carbon dioxide gas are preferably used to co-culture PBMCs with peptides. In the context of the present invention, 14-ml round-bottomed polypropylene tubes (Becton Dikinson) or 96-well U-bottomed cell culture microtest plates (Becton Dikinson) were used. The adenovirus-specific CTLs were confirmed after about two and four weeks of culture. The cells were stimulated again with the peptide at 10 μg/ml after about two weeks of culture. When the induction of adenovirus-specific CTLs was confirmed, the cells were further stimulated with peptide-pulsed antigen-presenting cells to establish CTL lines.
Approximately 1/10 to all of the cells induced by the above-described method were transferred into 96-well U-bottomed cell culture microtest plates, and the peptide used for the induction was added thereto at a final concentration of 0.01 to 0.05 μg/ml. Then, an intracellular protein transport inhibitor (for example, brefeldin A, monensin, or such) was added, and the cells were cultured in a 5% CO2 incubator at 37° C. for 5 to 16 hours. After culture, the cells were washed, and phycoerythrin (PE)-labeled MHC-tetramer reagent and phycoerythrin-Cy5(PC5)-labeled CD8 antibody (Beckman Coulter) were added thereto. The resulting mixture was allowed to stand at room temperature for 15 to 30 minutes. After washing, the cells were fixed with 4% formaldehyde at 4° C. for 15 minutes and washed with an excess amount of washing solution. After membrane permeabilization treatment with 0.1% saponin, an FITC-labeled anti-IFNγ antibody (Beckman Coulter) was added, and reacted at room temperature for 15 to 30 minutes. After washing, the proportion of IFNγ-positive cells in T cells or MHC-tetramer reagent-positive cells was determined using a flow cytometer.
PBMCs derived from ten people with HLA-A*24 molecule were tested using 10 types of peptides. […] Thus, these six types of candidate epitope peptides serve as adenovirus-specific CTL epitope peptides. Since the adenovirus-specific CTL epitope peptides have the HLA-A*24-binding motif, they are likely to be HLA-A*2402-restricted epitope peptides, which are carried by 60% or more of the Japanese people. In the context of the results described above, MHC-tetramer reagents were synthesized using five types of epitope peptides, and their utility was tested.

HLA-A*2402 VYSGSIPYL (SEQ ID NO: 3) Tetramer Reagent [VYS-Tet]
staining pattern at day 10 compared to Negative Tetramer reagent ([1]; donor ID*24-8, 10 days culture with peptide): clear CD8-positive, MHC-tetramer-positive pattern | population of CD8-negative, tetramer reagent-positive cells in the UL ([1]; peptide-induced CTL lines, FIG. 5, VYS-Tet: donor ID*24-1, *24-3, *24-11, *24-12, *24-14): detected | population of CD8-positive, tetramer-positive cells in the UR ([1]; peptide-induced CTL lines, donor ID*24-2 and *24-8, FIG. 5): clearly detected

KYTPSNVTL
specific CTL induction, cytokine quantification method ([2]; donor ID *24-1): x | specific CTL induction, cytokine quantification method ([2]; donor ID *24-2): x | specific CTL induction, cytokine quantification method ([2]; donor ID *24-3): x | specific CTL induction, cytokine quantification method ([2]; donor ID *24-5): x | specific CTL induction, cytokine quantification method ([2]; donor ID *24-8): x | specific CTL induction, cytokine quantification method ([2]; donor ID *24-10): x | specific CTL induction, cytokine quantification method ([2]; donor ID *24-11): x | specific CTL induction, cytokine quantification method ([2]; donor ID *24-12): x | specific CTL induction, cytokine quantification method ([2]; donor ID *24-13): x | specific CTL induction, cytokine quantification method ([2]; donor ID *24-14): x

NYIGFRDNF
specific CTL induction, cytokine quantification method ([2]; donor ID *24-1): x | specific CTL induction, cytokine quantification method ([2]; donor ID *24-2): x | specific CTL induction, cytokine quantification method ([2]; donor ID *24-3): x | specific CTL induction, cytokine quantification method ([2]; donor ID *24-5): x | specific CTL induction, cytokine quantification method ([2]; donor ID *24-8): x | specific CTL induction, cytokine quantification method ([2]; donor ID *24-10): x | specific CTL induction, cytokine quantification method ([2]; donor ID *24-11): x | specific CTL induction, cytokine quantification method ([2]; donor ID *24-12): x | specific CTL induction, cytokine quantification method ([2]; donor ID *24-13): x | specific CTL induction, cytokine quantification method ([2]; donor ID *24-14): x

NYNIGYQGF
specific CTL induction, cytokine quantification method ([2]; donor ID *24-1): x | specific CTL induction, cytokine quantification method ([2]; donor ID *24-2): x | specific CTL induction, cytokine quantification method ([2]; donor ID *24-3): x | specific CTL induction, cytokine quantification method ([2]; donor ID *24-5): x | specific CTL induction, cytokine quantification method ([2]; donor ID *24-8): x | specific CTL induction, cytokine quantification method ([2]; donor ID *24-10): x | specific CTL induction, cytokine quantification method ([2]; donor ID *24-11): x | specific CTL induction, cytokine quantification method ([2]; donor ID *24-12): x | specific CTL induction, cytokine quantification method ([2]; donor ID *24-13): x | specific CTL induction, cytokine quantification method ([2]; donor ID *24-14): x

QYDPVAALF [CMV pp65, reference compound]
specific CTLs (CD8-positive MHC-tetramer reagent-positive cells, UR) ([1]; donor ID*24-2, 13 days stimulation with the peptide, then HIV peptide added, % of whole viable cells): 28.8%

RYLRDQQLL [HIV peptide, reference compound]
CD8-positive, IFNγ-positive cells in UR ([2]; donor *24-8): 0.62% | CD8-positive, IFNγ-positive cells in UR ([2]; donor *24-12): 0.18%

SYQLLLDSL
specific CTL induction, cytokine quantification method ([2]; donor ID *24-1): x | specific CTL induction, cytokine quantification method ([2]; donor ID *24-2): x | specific CTL induction, cytokine quantification method ([2]; donor ID *24-3): x | specific CTL induction, cytokine quantification method ([2]; donor ID *24-5): x | specific CTL induction, cytokine quantification method ([2]; donor ID *24-8): x | specific CTL induction, cytokine quantification method ([2]; donor ID *24-10): x | specific CTL induction, cytokine quantification method ([2]; donor ID *24-11): x | specific CTL induction, cytokine quantification method ([2]; donor ID *24-12): x | specific CTL induction, cytokine quantification method ([2]; donor ID *24-13): x | specific CTL induction, cytokine quantification method ([2]; donor ID *24-14): x
